Laboratory results published in patent US12583921B2, “Targeted anti-SGLT1 avian IgY antibodies as treatment of pre-diabetes, type 2 diabetes and gestational diabetes” (Lay Sciences, Inc., priority 2022, dated 2026).
Marks after values point to notes of the source that are not given here.

How the values were obtained:
Wistar rats = assay: Oral Glucose Tolerance Test (OGTT) model in Wistar rats, single dose; assay type: in vivo; conditions: for blood glucose level, mean / area under curve, mean: metformin 200 mg/kg, n = 6
Procedure: An animal study was conducted to assess the effect of administering the anti-SGLT1 IgY antibody in an Oral Glucose Tolerance Test (OGTT) model in Wistar rats. The OGTT test was performed to determine if an intervention has blocked the intestinal absorption of orally given glucose load, and then lowering of the increase in blood glucose levels is observed. […] The OGTT studies were conducted on overnight fasting animals.

[1] = Procedure: The animals were acclimatized and were randomly distributed into 6 groups, each group comprised of 6 rats. The rats in group G1 served as a normal control group and were administered the vehicle (normal saline) alone at the dose volume of 10 mL/kg, whereas the rats in groups G2 and G3 were administered metformin and anti-SGLT1 IgY antibody, respectively, at the doses of 200 mg/kg and 500 mg/kg body weight for single administration.
SGLT1 = biological target: T1, SGLT1 (Homo sapiens, UniProt P13866); assay: Inhibition of glucose uptake in human intestinal cell line CaCo2; assay type: cell-based; conditions: CaCo2 cells; 800 μg/ml; relative to uptake without intervention; FIG. 3
T1 construct: a human intestinal cell line CaCo2, which expresses SGLT1; endogenous in cells; host or cells: CaCo2
T1 sequence (P13866 1-664): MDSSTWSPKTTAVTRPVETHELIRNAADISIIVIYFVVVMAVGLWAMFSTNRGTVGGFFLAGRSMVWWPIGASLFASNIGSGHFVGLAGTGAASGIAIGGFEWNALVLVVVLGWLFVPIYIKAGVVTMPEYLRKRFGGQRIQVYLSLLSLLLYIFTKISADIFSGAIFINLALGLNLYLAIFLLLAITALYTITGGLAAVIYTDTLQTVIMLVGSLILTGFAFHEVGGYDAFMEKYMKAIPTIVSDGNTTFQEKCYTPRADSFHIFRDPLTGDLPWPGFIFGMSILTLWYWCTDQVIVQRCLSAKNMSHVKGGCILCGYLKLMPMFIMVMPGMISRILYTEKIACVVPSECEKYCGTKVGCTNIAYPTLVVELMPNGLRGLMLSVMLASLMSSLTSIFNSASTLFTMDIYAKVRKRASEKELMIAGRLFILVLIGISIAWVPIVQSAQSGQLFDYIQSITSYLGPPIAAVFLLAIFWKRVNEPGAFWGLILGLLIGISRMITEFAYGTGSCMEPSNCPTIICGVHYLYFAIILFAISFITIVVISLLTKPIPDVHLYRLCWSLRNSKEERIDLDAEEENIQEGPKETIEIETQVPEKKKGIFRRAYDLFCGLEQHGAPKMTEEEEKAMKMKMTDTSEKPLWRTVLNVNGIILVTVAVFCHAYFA
Procedure: The IgY antibodies were then tested for their ability to inhibit the uptake of glucose in a human intestinal cell line CaCo2, which expresses SGLT1. The data in FIG. 3 are shown as percent inhibition of glucose uptake relative to glucose uptake in the absence of any intervention. […] In the figure, ** is P<0.01 Student's t-tests were performed to compare between the glucose inhibition shown by controls, peptide, and different concentration of IgY antibodies.

[2] = 30, 60, 90 and 120 min after 2 g/kg oral glucose

Row | Compound | blood glucose level, mean (Wistar rats; 0 minutes (before glucose 2 gm/kg), anti-SGLT1 IgY 500 mg/kg given 30 min before) | area under curve, mean (Wistar rats; 0 minutes, anti-SGLT1 IgY 500 mg/kg) | area under curve compared to normal control group G1 (Wistar rats; [2]) | blood glucose level compared to normal control group G1 (Wistar rats; [2]) | blood glucose level, mean (Wistar rats; 30 minutes after glucose 2 gm/kg, anti-SGLT1 IgY 500 mg/kg) | area under curve, mean (Wistar rats; 30 minutes, anti-SGLT1 IgY 500 mg/kg) | blood glucose level, mean (Wistar rats; 60 minutes after glucose 2 gm/kg, anti-SGLT1 IgY 500 mg/kg) | area under curve, mean (Wistar rats; 60 minutes, anti-SGLT1 IgY 500 mg/kg) | blood glucose level, mean (Wistar rats; 90 minutes after glucose 2 gm/kg, anti-SGLT1 IgY 500 mg/kg) | area under curve, mean (Wistar rats; 90 minutes, anti-SGLT1 IgY 500 mg/kg) | blood glucose level, mean (Wistar rats; 120 minutes after glucose 2 gm/kg, anti-SGLT1 IgY 500 mg/kg) | area under curve, mean (Wistar rats; 120 minutes, anti-SGLT1 IgY 500 mg/kg) | blood glucose level, mean (Wistar rats; 180 minutes after glucose 2 gm/kg, anti-SGLT1 IgY 500 mg/kg) | area under curve, mean (Wistar rats; 180 minutes, anti-SGLT1 IgY 500 mg/kg) | Mortality ([1]; male rats, single dose, metformin 200 mg/kg, anti-SGLT1 IgY 500 mg/kg, deaths/animals observed) | Individual Animal Clinical Signs Observations ([1]; male, Wistar, rat, in vivo, 1 day) | Body Weights, mean ([1]; rat, in vivo) | percent inhibition of glucose uptake (SGLT1)
1 | CN(C)C(=N)N=C(N)N [Metformin, metformin] | 108.17 mg/dL | 0.00 mg/dL | Significantly decreased | Significantly decreased | 161.67** mg/dL | 8.99* mg/dL | 127.17* mg/dL | 9.63** mg/dL | 121.50* mg/dL | 8.29** mg/dL | 114.00** mg/dL | 7.85** mg/dL | 106.33** mg/dL | 3.67** mg/dL | 0/6 | 1 | 232.63 g | –
2 | QSGQLFDYIQSITSYLGPP [peptide used as antigen] | – | – | – | – | – | – | – | – | – | – | – | – | – | – | – | – | – | able to block the uptake of glucose
